Laboratory results: PubChem BioAssay (NCI)
Values joined by “and” are separate entries in the source; they are usually repeats but may differ in a detail not shown here. Equal values may be shown once.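 Values below derive from 48-hour exposures of cells grown in 96-well plates, with endpoints linearly interpolated between the two concentrations bracketing the appropriate inhibition level. The concentration for 50% growth inhibition is given as GI50. TGI denotes the concentration required for complete inhibition of growth.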

Tests used:
Test in all cases: growth of human tumour cells (NCI), 48 h
DLD-1 colon = system: DLD-1 colon
OVCAR-3 ovarian = system: OVCAR-3 ovarian
SK-OV-3 ovarian = system: SK-OV-3 ovarian
ACHN renal = system: ACHN renal
KM20L2 colon = system: KM20L2 colon
MALME-3M melanoma = system: MALME-3M melanoma
SK-MEL-28 melanoma = system: SK-MEL-28 melanoma
MDA-MB-435 = system: MDA-MB-435
NCI/ADR-RES ovarian = system: NCI/ADR-RES ovarian
MDA-MB-231 breast = system: MDA-MB-231 breast

Compound | GI50 (DLD-1 colon) | TGI (DLD-1 colon) | GI50 (OVCAR-3 ovarian) | TGI (OVCAR-3 ovarian) | GI50 (SK-OV-3 ovarian) | TGI (SK-OV-3 ovarian) | GI50 (ACHN renal) | TGI (ACHN renal) | GI50 (KM20L2 colon) | TGI (KM20L2 colon) | GI50 (MALME-3M melanoma) | TGI (MALME-3M melanoma) | GI50 (SK-MEL-28 melanoma) | TGI (SK-MEL-28 melanoma) | GI50 (MDA-MB-435) | TGI (MDA-MB-435) | GI50 (NCI/ADR-RES ovarian) | TGI (NCI/ADR-RES ovarian) | GI50 (MDA-MB-231 breast) | TGI (MDA-MB-231 breast)
CC(=O)OC[C@]12CC[C@H]3[C@@H](C[C@H]4O[C@]45[C@@H](O)C=CC(=O)[C@]35C)[C@@H]1CC[C@@H]2[C@H](C)[C@H]1CC(C)=C(C)C(=O)O1 | 0.273 µM and 0.129 µM | 0.649 µM and 0.31 µM | 0.314 µM and 0.176 µM | 0.842 µM and 0.548 µM | 2.78 µM | 5.98 µM | 0.498 µM and 0.515 µM | 0.792 µM and 1.16 µM | 0.512 µM and 0.407 µM | 0.829 µM and 1.44 µM | 1.11 µM | 2.4 µM | 0.526 µM and 0.381 µM | 1.09 µM |  |  |  |  |  | 
O=C(Nc1ccc(Cl)cc1)c1cc(-c2ccc(F)cc2)c2sc(=O)[nH]c2n1 |  |  | 0.944 µM | 11.4 µM | 1.57 µM | 5.41 µM | 1.69 µM | 4.02 µM |  |  | 1.7 µM | 6.8 µM | 1.39 µM | 10.1 µM | 3.01 µM | 17.4 µM | 2.32 µM | 10.9 µM | 1.77 µM | 4.78 µM
CCOC(=O)NC(=O)c1cn(CCOCCOC(=O)NCCCCCCNC(=O)OCCOCCn2cc(C(=O)NC(=O)OCC)c(=O)[nH]c2=O)c(=O)[nH]c1=O |  | > 100 µM |  | > 100 µM |  | > 100 µM |  | > 100 µM |  | > 100 µM |  | > 100 µM |  | > 100 µM |  |  |  |  |  | 
COc1cc(NC(=O)c2cc(O)c(CC=C(C)C)c(O)c2)cc2c1O[C@]1(C)CC[C@@H](O)C(C)(C)[C@H]1C2 |  |  | 5.93 µM | 83.5 µM | 4.72 µM | 28.8 µM | 5.38 µM | 48.7 µM |  |  | 6.24 µM | 24.3 µM | 2.31 µM | 16.8 µM | 3.73 µM | 23.7 µM | 37 µM | > 100 µM | 3.56 µM | 19.8 µM
Cc1nc2ccccc2c(=O)n1NC(=O)c1ccccn1 |  |  |  | > 100 µM |  | > 100 µM |  | > 100 µM |  |  |  | > 100 µM |  | > 100 µM |  | > 100 µM |  | > 100 µM |  | > 100 µM
Cc1cc(S(=O)(=O)Nc2nc(N)nc(N3N=CCC3C)n2)c(SCC(=O)O)cc1Cl (centres undefined) |  |  |  | > 10 µM |  | > 10 µM |  | > 10 µM |  |  |  | > 10 µM |  | > 10 µM |  | > 10 µM |  | > 10 µM |  | > 10 µM
Cc1ccc(C(=NN=C(N)N)c2ccc(C)cc2)cc1 |  |  | 0.24 µM | 0.568 µM | 1.16 µM | 10.2 µM | 1.1 µM | 7.4 µM |  |  | 0.388 µM | 1.91 µM | 2.2 µM | 6.7 µM | 0.199 µM | 0.471 µM | 1.85 µM | 5.59 µM | 0.926 µM | 4.36 µM
Clc1nc(Cl)c2ncn(Cc3cccc(COc4cccc(OCc5cccc(Cn6cnc7c(Cl)nc(Cl)nc76)c5)c4)c3)c2n1 |  |  | 7.26 µM | 34.7 µM | > 100 µM | > 100 µM | 54.5 µM | > 100 µM |  |  | > 100 µM | > 100 µM | 90.3 µM | > 100 µM | 13.8 µM | > 100 µM | 53.1 µM | > 100 µM | 27.2 µM | > 100 µM
CN(C)c1ccc(N)cc1 |  |  | 2.14 µM | 6.12 µM | 13.1 µM | 58 µM | 4.38 µM | 18 µM |  |  | 3.17 µM | 13.8 µM | 7.81 µM | 22.3 µM | 3.4 µM | 15.2 µM | 12.6 µM | 48 µM | 3.99 µM | 55.2 µM
CCS(=O)(=O)c1ccc(OC)c(Nc2ncc(-c3cccc(OC)c3)o2)c1 |  |  | 9.92 µM | > 25 µM | 9.92 µM | > 25 µM | 6.61 µM | > 25 µM |  |  | > 25 µM | > 25 µM | > 20.6 µM | > 25 µM | 18.2 µM | > 25 µM | 9.38 µM | > 25 µM | 8.54 µM | > 25 µM
O=C(O)CP(=S)(S)c1ccccc1 (centres undefined) |  | > 100 µM |  |  |  | > 100 µM |  | > 100 µM |  |  |  | > 100 µM |  | > 100 µM |  |  |  |  |  | 
CCCCN=C(N)c1ccc(OCCSCCOc2ccc(C(N)=NCCCC)cc2)cc1 |  |  | 4.97 µM | > 100 µM | 2.54 µM | > 100 µM | > 100 µM | > 100 µM |  |  | 2.97 µM | 26.4 µM | 20 µM | > 100 µM | 3.35 µM | > 100 µM | > 100 µM | > 100 µM | 16.9 µM | > 100 µM
COC(=O)c1cccc2cccc(C(=O)Nc3ccc(C)cc3C)c12 |  | > 100 µM |  | > 100 µM |  | > 100 µM |  | > 100 µM |  | > 100 µM |  | > 100 µM |  | > 100 µM |  |  |  |  |  | 
CC(C)c1ccc(C(=O)Nc2sc3c(c2C(N)=O)CCC(=O)C3)cc1 |  |  | 0.421 µM | 1.51 µM | 2.62 µM | 8.02 µM | 0.343 µM | 1.11 µM |  |  | 1.65 µM | 4.79 µM | 1.18 µM | 3.01 µM | 1.49 µM | 3.62 µM | 0.975 µM | 5.57 µM | 0.788 µM | 2.43 µM
Cc1ccccc1N(CCC#N)C1=NN(C(=O)CC(=O)Nc2ccccc2)C(c2ccccc2)C1 (centres undefined) |  | > 100 µM |  | > 100 µM |  | > 100 µM |  | > 100 µM |  | > 100 µM |  | > 100 µM |  | > 100 µM |  |  |  |  |  | 
CC1(n2nc(-c3ccccc3)n(-c3ccccc3)c2=O)CSC1 |  | > 100 µM |  |  |  | > 100 µM |  | > 100 µM |  | > 100 µM |  |  |  | > 100 µM |  |  |  |  |  | 
